What was measured:
IKKε = IKKε (Homo sapiens (Human), UniProt Q14164); test: IKKε TR-FRET enzymatic assay; format: biochemical; conditions: read-out: IKKe IC50
TBK1 = TBK1 (Homo sapiens (Human), UniProt Q9UHD2); test: TBK1 TR-FRET enzymatic assay;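 note: phosphorylation of a biotinylated Ser/Thr peptide by purified full-length recombinant TBK1, read by TR-FRET after 240 min at 25 °C, IC50 is the geometric mean of at least four runs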
hJAK2 = hJAK2 (Homo sapiens (Human), UniProt O60674); test: hJAK2 LANCE TR-FRET enzymatic assay; format: biochemical; conditions: read-out: JAK2 IC50
Chain of hJAK2 (O60674 whole entry): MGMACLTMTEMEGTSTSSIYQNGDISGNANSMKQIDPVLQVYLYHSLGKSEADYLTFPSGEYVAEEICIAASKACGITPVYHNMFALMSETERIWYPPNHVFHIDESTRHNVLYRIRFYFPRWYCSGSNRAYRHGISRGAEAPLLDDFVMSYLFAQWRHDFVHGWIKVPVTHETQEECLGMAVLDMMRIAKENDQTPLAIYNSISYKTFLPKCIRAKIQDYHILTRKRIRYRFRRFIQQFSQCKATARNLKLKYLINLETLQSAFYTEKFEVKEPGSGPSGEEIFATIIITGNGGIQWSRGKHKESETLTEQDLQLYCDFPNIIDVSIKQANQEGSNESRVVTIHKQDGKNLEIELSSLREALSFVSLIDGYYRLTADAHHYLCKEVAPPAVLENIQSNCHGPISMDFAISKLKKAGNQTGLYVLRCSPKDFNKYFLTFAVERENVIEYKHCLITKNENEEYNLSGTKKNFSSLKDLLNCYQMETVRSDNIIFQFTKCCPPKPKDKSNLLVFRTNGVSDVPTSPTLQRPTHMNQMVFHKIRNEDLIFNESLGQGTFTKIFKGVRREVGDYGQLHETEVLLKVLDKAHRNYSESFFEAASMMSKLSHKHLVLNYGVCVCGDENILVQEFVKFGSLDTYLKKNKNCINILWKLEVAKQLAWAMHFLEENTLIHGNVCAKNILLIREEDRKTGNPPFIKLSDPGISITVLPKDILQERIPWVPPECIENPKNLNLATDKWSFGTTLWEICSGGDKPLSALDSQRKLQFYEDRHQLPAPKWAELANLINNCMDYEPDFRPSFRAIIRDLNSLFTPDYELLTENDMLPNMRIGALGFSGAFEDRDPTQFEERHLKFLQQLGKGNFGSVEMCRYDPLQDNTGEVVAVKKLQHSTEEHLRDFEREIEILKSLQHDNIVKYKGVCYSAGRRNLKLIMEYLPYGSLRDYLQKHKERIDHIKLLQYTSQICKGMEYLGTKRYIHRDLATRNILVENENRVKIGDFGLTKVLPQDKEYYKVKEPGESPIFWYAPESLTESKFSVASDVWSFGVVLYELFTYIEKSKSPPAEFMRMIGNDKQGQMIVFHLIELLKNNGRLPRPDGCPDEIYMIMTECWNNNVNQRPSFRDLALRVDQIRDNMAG

Chain of IKKε (Q14164 whole entry): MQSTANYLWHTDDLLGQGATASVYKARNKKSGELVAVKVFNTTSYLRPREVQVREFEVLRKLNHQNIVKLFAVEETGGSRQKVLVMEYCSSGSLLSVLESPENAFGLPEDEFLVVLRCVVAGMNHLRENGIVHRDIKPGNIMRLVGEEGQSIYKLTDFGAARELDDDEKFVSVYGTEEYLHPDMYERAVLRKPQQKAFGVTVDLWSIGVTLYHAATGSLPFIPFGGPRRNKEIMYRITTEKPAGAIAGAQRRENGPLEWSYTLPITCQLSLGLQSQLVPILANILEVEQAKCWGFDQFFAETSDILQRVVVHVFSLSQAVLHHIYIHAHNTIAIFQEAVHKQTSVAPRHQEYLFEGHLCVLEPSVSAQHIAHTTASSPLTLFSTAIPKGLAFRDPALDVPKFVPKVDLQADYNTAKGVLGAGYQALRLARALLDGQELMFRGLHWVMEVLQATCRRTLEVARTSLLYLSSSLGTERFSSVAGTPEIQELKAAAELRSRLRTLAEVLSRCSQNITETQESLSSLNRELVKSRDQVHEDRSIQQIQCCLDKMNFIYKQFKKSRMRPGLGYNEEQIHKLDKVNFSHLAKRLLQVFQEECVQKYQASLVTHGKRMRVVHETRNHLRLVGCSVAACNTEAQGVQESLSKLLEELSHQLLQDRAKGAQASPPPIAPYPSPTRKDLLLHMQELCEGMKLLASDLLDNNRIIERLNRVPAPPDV
Chain of TBK1 (Q9UHD2 whole entry): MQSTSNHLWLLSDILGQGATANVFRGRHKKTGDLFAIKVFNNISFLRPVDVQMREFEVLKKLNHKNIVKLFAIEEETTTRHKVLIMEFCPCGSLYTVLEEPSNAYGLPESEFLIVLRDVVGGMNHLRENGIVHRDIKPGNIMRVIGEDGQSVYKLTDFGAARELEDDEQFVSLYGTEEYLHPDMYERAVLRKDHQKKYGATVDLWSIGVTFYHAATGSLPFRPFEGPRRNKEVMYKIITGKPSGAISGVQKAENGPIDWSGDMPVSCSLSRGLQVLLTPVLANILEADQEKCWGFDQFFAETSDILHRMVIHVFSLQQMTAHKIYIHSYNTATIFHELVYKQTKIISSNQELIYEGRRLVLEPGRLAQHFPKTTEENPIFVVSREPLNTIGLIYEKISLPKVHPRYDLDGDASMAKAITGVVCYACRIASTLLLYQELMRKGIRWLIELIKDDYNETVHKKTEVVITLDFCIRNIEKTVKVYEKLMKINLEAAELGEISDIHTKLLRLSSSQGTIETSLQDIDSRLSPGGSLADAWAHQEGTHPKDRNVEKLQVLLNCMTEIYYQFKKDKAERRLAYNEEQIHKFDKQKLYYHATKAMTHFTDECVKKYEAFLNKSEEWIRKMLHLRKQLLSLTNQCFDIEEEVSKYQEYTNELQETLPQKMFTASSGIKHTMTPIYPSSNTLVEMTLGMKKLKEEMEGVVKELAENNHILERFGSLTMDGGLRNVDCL

IC50 (IKKε) [µM]	IC50 (TBK1) [µM]	IC50 (hJAK2) [µM]	Compound
0.043			N#Cc1cc(-c2ncnc(Nc3ccc(C4CCN(C5COC5)CC4)cc3)n2)ccc1OC1CCS(=O)(=O)CC1 [Example 270, 2-((1,1-dioxidotetrahydro-2H-thiopyran-4-yl)oxy)-5-(4-((4-(1-(oxetan-3-yl)piperidin-4-yl)phenyl)amino)-1,3,5-triazin-2-yl)benzonitrile]
	0.002	0.053	N#Cc1cc(-c2ncnc(Nc3ccc(N4CCN(C5COC5)CC4)cc3)n2)ccc1O[C@H]1CCN(C(=O)c2nnc[nH]2)CC1(F)F [Example 166, (S)-2-((3,3-difluoro-1-(4H-1,2,4-triazole-3-carbonyl)piperidin-4-yl)oxy)-5-(4-((4-(4-(oxetan-3-yl)piperazin-1-yl)phenyl)amino)-1,3,5-triazin-2-yl)benzonitrile]
0.005			N#Cc1cc(-c2ncnc(Nc3ccc(N4CCN(C5COC5)CC4)cc3)n2)ccc1O[C@@H]1CCN(C(=O)CO)C[C@H]1F [Example 235, 2-(((3R,4R)-3-fluoro-1-(2-hydroxyacetyl)piperidin-4-yl)oxy)-5-(4-((4-(4-(oxetan-3-yl)piperazin-1-yl)phenyl)amino)-1,3,5-triazin-2-yl)benzonitrile]
	0.002	0.042	C[C@H]1CN(C2COC2)CCN1c1ccc(Nc2ncnc(-c3ccc(O[C@H]4CCN(C(=O)c5nnc[nH]5)CC4(F)F)c(C#N)c3)n2)cc1 [Example 260, 2-(((S)-3,3-difluoro-1-(4H-1,2,4-triazole-3-carbonyl)piperidin-4-yl)oxy)-5-(4-((4-((S)-2-methyl-4-(oxetan-3-yl)piperazin-1-yl)phenyl)amino)-1,3,5-triazin-2-yl)benzonitrile]
	0.001	0.29	Cc1cc(Nc2ncnc(-c3ccc(O[C@H]4CCN(C=O)CC4(F)F)c(C#N)c3)n2)ccc1C1CCNCC1 [Example 303, (S)-2-((3,3-difluoro-1-formylpiperidin-4-yl)oxy)-5-(4-((3-methyl-4-(piperidin-4-yl)phenyl)amino)-1,3,5-triazin-2-yl)benzonitrile]
	0.002	0.355	C[C@H]1CN(C)CCN1c1ccc(Nc2ncnc(-c3ccc(O[C@H]4CCN(C(=O)[C@@H](O)CO)C[C@H]4F)c(C#N)c3)n2)cc1 [Example 515, 2-(((3R,4S)-1-((S)-2,3-dihydroxypropanoyl)-3-fluoropiperidin-4-yl)oxy)-5-(4-((4-((S)-2,4-dimethylpiperazin-1-yl)phenyl)amino)-1,3,5-triazin-2-yl)benzonitrile]
	0.017	0.228	C[C@H](O)C(=O)N1CC[C@@H](Oc2ccc(-c3ncnc(Nc4ccc(N5CCN(C6COC6)[C@H](C)C5)cc4)n3)cc2C#N)C(F)(F)C1 [Example 245, 2-(((R)-3,3-difluoro-1-((S)-2-hydroxypropanoyl)piperidin-4-yl)oxy)-5-(4-((4-((R)-3-methyl-4-(oxetan-3-yl)piperazin-1-yl)phenyl)amino)-1,3,5-triazin-2-yl)benzonitrile]
	0.012	≥ 1	COCCNc1ccc(Nc2ncnc(-c3ccc(O[C@H]4CCN(C(=O)[C@H](C)O)C[C@H]4F)c(C#N)c3)n2)cn1 [Example 543, 2-(((3R,4S)-3-fluoro-1-((S)-2-hydroxypropanoyl)piperidin-4-yl)oxy)-5-(4-((6-((2-methoxyethyl)amino)pyridin-3-yl)amino)-1,3,5-triazin-2-yl)benzonitrile]
	0.003	0.078	Cc1nnc(C(=O)N2CC[C@H](Oc3ccc(-c4ncnc(Nc5ccc(C6CCN(C)CC6)c(C)c5)n4)cc3C#N)[C@H](F)C2)[nH]1 [Example 490, 2-(((3R,4S)-3-fluoro-1-(5-methyl-4H-1,2,4-triazole-3-carbonyl)piperidin-4-yl)oxy)-5-(4-((3-methyl-4-(1-methylpiperidin-4-yl)phenyl)amino)-1,3,5-triazin-2-yl)benzonitrile]
	0.005	> 1	CS(=O)(=O)c1ccc(Nc2ncnc(-c3ccc(OC4CCOCC4)c(C#N)c3)n2)cc1 [Example 50, 5-(4-((4-(methylsulfonyl)phenyl)amino)-1,3,5-triazin-2-yl)-2-((tetrahydro-2H-pyran-4-yl)oxy)benzonitrile]
	0.002	0.389	C[C@H](O)C(=O)N1CC[C@H](Oc2ccc(-c3ncnc(Nc4ccc(N5CCN(C)CC5)cc4)n3)cc2C#N)[C@H](F)C1 [Example 498, 2-(((3R,4S)-3-fluoro-1-((S)-2-hydroxypropanoyl)piperidin-4-yl)oxy)-5-(4-((4-(4-methylpiperazin-1-yl)phenyl)amino)-1,3,5-triazin-2-yl)benzonitrile]
	0.003	0.308	CC(=O)N1CC[C@H](Oc2ccc(-c3ncnc(Nc4ccc(C5CCNCC5)cc4)n3)cc2C#N)C(F)(F)C1 [Example 301, (S)-2-((1-acetyl-3,3-difluoropiperidin-4-yl)oxy)-5-(4-((4-(piperidin-4-yl)phenyl)amino)-1,3,5-triazin-2-yl)benzonitrile]
	0.002	0.174	CC(=O)N1CC[C@H](Oc2ccc(-c3ncnc(Nc4ccc(C5CCN(C)CC5)cc4)n3)cc2C#N)C(F)(F)C1 [Example 302, (S)-2-((1-acetyl-3,3-difluoropiperidin-4-yl)oxy)-5-(4-((4-(1-methylpiperidin-4-yl)phenyl)amino)-1,3,5-triazin-2-yl)benzonitrile]
	0.466	≥ 1	CN1CCN(C(=O)N(C)CCOc2ccc(-c3ncnc(Nc4ccc(N5CCN(C6COC6)CC5)cc4)n3)cc2C#N)CC1 [Example 603, N-(2-(2-cyano-4-(4-((4-(4-(oxetan-3-yl)piperazin-1-yl)phenyl)amino)-1,3,5-triazin-2-yl)phenoxy)ethyl)-N,4-dimethylpiperazine-1-carboxamide]
	0.002	0.292	N#Cc1cc(-c2ncnc(Nc3ccc(C4CCN(C5COC5)CC4)cc3)n2)ccc1O[C@H]1CCN(C(=O)CO)C[C@H]1F [Example 305, 2-(((3R,4S)-3-fluoro-1-(2-hydroxyacetyl)piperidin-4-yl)oxy)-5-(4-((4-(1-(oxetan-3-yl)piperidin-4-yl)phenyl)amino)-1,3,5-triazin-2-yl)benzonitrile]
0.003			N#Cc1cc(-c2ncnc(Nc3ccc(N4CCO[C@@H](CO)C4)cc3)n2)ccc1OC1CCOCC1 [Example 107, (R)-5-(4-((4-(2-(hydroxymethyl)morpholino)phenyl)amino)-1,3,5-triazin-2-yl)-2-((tetrahydro-2H-pyran-4-yl)oxy)benzonitrile]
	0.027	0.29	N#Cc1cc(-c2ncnc(Nc3cccc(N4CCOCC4)c3)n2)ccc1O[C@@H]1CCN(C(=O)CO)C1 [Example 81, (R)-2-((1-(2-hydroxyacetyl)pyrrolidin-3-yl)oxy)-5-(4-((3-morpholinophenyl)amino)-1,3,5-triazin-2-yl)benzonitrile]
	0.01	0.811	C[C@H]1OC(=O)N[C@@H]1C(=O)N1CC[C@H](Oc2ccc(-c3ncnc(Nc4ccc(N5CCN(C6COC6)CC5)cc4)n3)cc2C#N)[C@H](F)C1 [Example 523, 2-(((3R,4S)-3-fluoro-1-((4S,5R)-5-methyl-2-oxooxazolidine-4-carbonyl)piperidin-4-yl)oxy)-5-(4-((4-(4-(oxetan-3-yl)piperazin-1-yl)phenyl)amino)-1,3,5-triazin-2-yl)benzonitrile]
	0.001	0.358	C[C@H](O)C(=O)N1CC[C@H](Oc2ccc(-c3ncnc(Nc4ccc(N5CCNCC5)cc4)n3)cc2C#N)[C@H](F)C1 [Example 497, 2-(((3R,4S)-3-fluoro-1-((S)-2-hydroxypropanoyl)piperidin-4-yl)oxy)-5-(4-((4-(piperazin-1-yl)phenyl)amino)-1,3,5-triazin-2-yl)benzonitrile]
0.003			N#Cc1cc(-c2ncnc(Nc3ccc(N4CCN(C5COC5)CC4)cc3)n2)ccc1O[C@@H]1CCN(C(=O)CO)C[C@@H]1F (racemic) [Example 218, 2-((cis-3-fluoro-1-(2-hydroxyacetyl)piperidin-4-yl)oxy)-5-(4-((4-(4-(oxetan-3-yl)piperazin-1-yl)phenyl)amino)-1,3,5-triazin-2-yl)benzonitrile]
	0.003	0.457	N#CCC(=O)N1CC[C@H](Oc2ccc(-c3ncnc(Nc4ccc(N5CCN(C6COC6)CC5)c(F)c4)n3)cc2C#N)[C@H](F)C1 [Example 404, 2-(((3R,4S)-1-(2-cyanoacetyl)-3-fluoropiperidin-4-yl)oxy)-5-(4-((3-fluoro-4-(4-(oxetan-3-yl)piperazin-1-yl)phenyl)amino)-1,3,5-triazin-2-yl)benzonitrile]
0.023			N#Cc1cc(-c2ncnc(Nc3ccc(N4CCN(C5COC5)CC4)cc3)n2)ccc1O[C@@H]1CCN(C(=O)CO)C[C@@H]1F [Example 224, 2-(((3S,4R)-3-fluoro-1-(2-hydroxyacetyl)piperidin-4-yl)oxy)-5-(4-((4-(4-(oxetan-3-yl)piperazin-1-yl)phenyl)amino)-1,3,5-triazin-2-yl)benzonitrile]
	0.013	0.678	N#Cc1cc(-c2ncnc(Nc3ccc(C(N)=O)cc3)n2)ccc1O[C@@H]1CCN(C(=O)CO)C1 [Example 85, (R)-4-((4-(3-cyano-4-((1-(2-hydroxyacetyl)pyrrolidin-3-yl)oxy)phenyl)-1,3,5-triazin-2-yl)amino)benzamide]
	0.002	0.028	COc1cc(Nc2ncnc(-c3ccc(O[C@H]4CCN(C(=O)CO)C[C@H]4F)c(C#N)c3)n2)ccc1N1CCC(N2CCOCC2)CC1 [Example 325, 2-(((3R,4S)-3-fluoro-1-(2-hydroxyacetyl)piperidin-4-yl)oxy)-5-(4-((3-methoxy-4-(4-morpholinopiperidin-1-yl)phenyl)amino)-1,3,5-triazin-2-yl)benzonitrile]

Source: patent US10040781B2, “Tank-binding kinase inhibitor compounds” (Gilead Sciences, Inc., priority 2014, dated 2018)
